Reference: US5527781A, “4-O-(aminoglycosyl)- or 4,6-di-O-(aminoglycosyl)-2,5-dideoxy-5,5-difluorostreptamine derivatives” (Zaidan Hojin Biseibutsu Kagaku Kenkyu Kai, priority 1990, dated 1996)
Converted amounts (≈) assume the structure as drawn. Like-named read-outs stand apart in the source and are kept apart here.

Assays:
Escherichia coli JR225 = test: microbe, parasite or virus in culture; assay type: cell-based; conditions: resistance mechanism AAC(3), Mueller-Hinton agar, 37° C
Serratia marcescens = test: MIC, standard serial dilution method; assay type: cell-based; conditions: Mueller-Hinton agar, 37° C
[1] = tested on: Pseudomonas aeruginosa GN 315; test: MIC, standard serial dilution method; assay type: cell-based; conditions: GN315; Pseudomonas aeruginosa GN 315; resistance mechanism AAC(6'); Mueller-Hinton agar, 37° C; read-out: MIC
Escherichia coli K-12 = test: MIC, standard serial dilution method; assay type: cell-based; conditions: K12
Bacillus subtilis PCI219 = test: MIC, standard serial dilution method; assay type: cell-based; conditions: Mueller-Hinton agar, 37° C
[2] = tested on: Corynebacterium bovis 1810; test: MIC, standard serial dilution method; assay type: cell-based; conditions: Mueller-Hinton agar, 37° C
[3] = tested on: Escherichia coli K-12 LA 290 R55; test: microbe, parasite or virus in culture; assay type: cell-based; conditions: K12LA290R55
Escherichia coli K-12 R5 = test: microbe, parasite or virus in culture; assay type: cell-based; conditions: K12R5
Mycobacterium 607 = test: MIC, standard serial dilution method; assay type: cell-based; conditions: Mueller-Hinton agar, 37° C
[4] = tested on: Staphylococcus aureus 209P; test: MIC, standard serial dilution method; assay type: cell-based; conditions: Mueller-Hinton agar, 37° C
[5] = tested on: Escherichia coli K-12 ML 1629; test: microbe, parasite or virus in culture; assay type: cell-based; conditions: K12ML1629
[6] = tested on: Escherichia coli JR66/W677; test: microbe, parasite or virus in culture; assay type: cell-based; conditions: resistance mechanism APH(3')-II, ANT(2"), Mueller-Hinton agar, 37° C
[7] = tested on: Staphylococcus aureus Ap01; test: MIC, standard serial dilution method; assay type: cell-based; conditions: resistance mechanism ANT(4'), Mueller-Hinton agar, 37° C
Providencia sp. Pv 16 = test: MIC, standard serial dilution method; assay type: cell-based; conditions: SP.PV16, resistance mechanism AAC(2'), Mueller-Hinton agar, 37° C
in vivo = conditions: mouse, iv, pH 7
Source text: Further, in order to estimate acute toxicity of the compound of the general formula (I) according to this invention, some examples of the compounds of this invention were independently dissolved in water to prepare aqueous solutions (as adjusted to pH 7 by addition of hydrochloric acid). […] The tested compounds of this invention are expressed by the same abbreviations as in Table 1. […] The comparative compounds as tested are also expressed by the same abbreviations as in Table 1.

Proteus rettgeri GN 311 = test: MIC, standard serial dilution method; assay type: cell-based; conditions: Providencia rettgeri, GN311
[8] = tested on: Pseudomonas aeruginosa A3; test: MIC, standard serial dilution method; assay type: cell-based; conditions: Mueller-Hinton agar, 37° C
[9] = tested on: Klebsiella pneumoniae 22#3038; test: MIC, standard serial dilution method; assay type: cell-based; conditions: resistance mechanism APH(3')-II, ANT(2"), Mueller-Hinton agar, 37° C
[10] = Escherichia coli K-12 LA 290 R55, resistance mechanism ANT(2"), Mueller-Hinton agar, 37° C
[11] = Escherichia coli K-12 R5, resistance mechanism AAC(6'), Mueller-Hinton agar, 37° C
[12] = Proteus rettgeri GN 311, Mueller-Hinton agar, 37° C, read-out: MIC
[13] = Escherichia coli K-12, Mueller-Hinton agar, 37° C, read-out: MIC
[14] = Escherichia coli K-12 ML 1629, resistance mechanism APH(3')-I, Mueller-Hinton agar, 37° C, read-out: MIC

SMILES: CN[C@@H]1[C@@H](O)[C@@H](O[C@H]2[C@H](N)C[C@H](N)[C@@H](O[C@H]3O[C@H]([C@@H](C)N)CC[C@H]3N)C2(F)F)OC[C@]1(C)O [Compound 5FF-Genta-C2, 5-deoxy-5,5-difluorogentamicin C2]
- MIC (Escherichia coli JR225): 6.25 µg/mL (≈ 12.9 µM)
- MIC (Serratia marcescens): 0.78 µg/mL (≈ 1.61 µM)
- MIC [1]: 25 µg/mL (≈ 51.7 µM)
- MIC (Escherichia coli K-12; Escherichia coli): 0.78 µg/mL (≈ 1.61 µM)
- MIC (Bacillus subtilis PCI219): 0.2 µg/mL (≈ 0.414 µM)
- MIC [2]: 0.78 µg/mL (≈ 1.61 µM)
- MIC [3, 10]: 3.12 µg/mL (≈ 6.45 µM)
- MIC (Escherichia coli K-12 R5; [11]): 1.56 µg/mL (≈ 3.23 µM)
- MIC (Mycobacterium 607): 0.78 µg/mL (≈ 1.61 µM)
- MIC [4]: 0.78 µg/mL (≈ 1.61 µM)
- MIC ([5]; Escherichia coli): 0.78 µg/mL (≈ 1.61 µM)
- MIC [6]: 3.12 µg/mL (≈ 6.45 µM)
- MIC [7]: 6.25 µg/mL (≈ 12.9 µM)
- MIC (Providencia sp. Pv 16): 6.25 µg/mL (≈ 12.9 µM)
- LD50 (in vivo): ~230 mg/kg
- MIC (Proteus rettgeri GN 311; [12]): 0.78 µg/mL (≈ 1.61 µM)
- MIC [8]: 1.56 µg/mL (≈ 3.23 µM)
- MIC [9]: 1.56 µg/mL (≈ 3.23 µM)

SMILES: NC[C@H]1O[C@H](O[C@@H]2[C@@H](N)C[C@@H](N)[C@H](O[C@H]3O[C@H](CO)[C@@H](O)[C@H](N)[C@H]3O)C2(F)F)[C@H](N)C[C@@H]1O [Compound 5FF-TOB, 5-deoxy-5,5-difluorotobramycin]
- MIC (Escherichia coli JR225): 0.39 µg/mL (≈ 0.8 µM)
- MIC (Serratia marcescens): 3.12 µg/mL (≈ 6.4 µM)
- MIC [1]: 100 µg/mL (≈ 205 µM)
- MIC (Escherichia coli K-12; [13]): 0.39 µg/mL (≈ 0.8 µM)
- MIC (Bacillus subtilis PCI219): 0.39 µg/mL (≈ 0.8 µM)
- MIC [2]: 1.56 µg/mL (≈ 3.2 µM)
- MIC ([3]; Escherichia coli): 0.78 µg/mL (≈ 1.6 µM)
- MIC (Escherichia coli K-12 R5; [11]): 25 µg/mL (≈ 51.3 µM)
- MIC (Mycobacterium 607): 0.39 µg/mL (≈ 0.8 µM)
- MIC [4]: 0.39 µg/mL (≈ 0.8 µM)
- MIC ([5]; Escherichia coli): 0.78 µg/mL (≈ 1.6 µM)
- MIC [6]: 1.56 µg/mL (≈ 3.2 µM)
- MIC [7]: 25 µg/mL (≈ 51.3 µM)
- MIC (Providencia sp. Pv 16): 12.5 µg/mL (≈ 25.6 µM)
- LD50 (in vivo): 260 mg/kg
- MIC (Proteus rettgeri GN 311; [12]): < 0.2 µg/mL
- MIC [8]: < 0.2 µg/mL
- MIC [9]: 0.78 µg/mL (≈ 1.6 µM)

SMILES: NCC[C@H](O)C(=O)N[C@@H]1C[C@H](N)[C@@H](O[C@H]2O[C@H](CN)[C@@H](O)C[C@H]2N)C(F)(F)[C@H]1O[C@H]1O[C@H](CO)[C@@H](O)[C@H](N)[C@H]1O [Compound 5FF-TOB-AHB, 1-N-[(S)-4-amino-2-hydroxybutyryl]-5-deoxy-5,5-difluorotobramycin]
- MIC (Escherichia coli JR225): < 0.2 µg/mL
- MIC (Serratia marcescens): 1.56 µg/mL (≈ 2.65 µM)
- MIC [1]: 6.25 µg/mL (≈ 10.6 µM)
- MIC (Escherichia coli K-12; [13]): < 0.2 µg/mL
- MIC (Bacillus subtilis PCI219): < 0.2 µg/mL
- MIC [2]: < 0.2 µg/mL
- MIC [3, 10]: < 0.2 µg/mL
- MIC (Escherichia coli K-12 R5; [11]): 3.12 µg/mL (≈ 5.3 µM)
- MIC (Mycobacterium 607): 0.39 µg/mL (≈ 0.663 µM)
- MIC [4]: 0.39 µg/mL (≈ 0.663 µM)
- MIC [5, 14]: 0.39 µg/mL (≈ 0.663 µM)
- MIC [6]: 0.39 µg/mL (≈ 0.663 µM)
- MIC [7]: 3.12 µg/mL (≈ 5.3 µM)
- MIC (Providencia sp. Pv 16): 0.78 µg/mL (≈ 1.33 µM)
- LD50 (in vivo): > 300 mg/kg
- MIC (Proteus rettgeri GN 311; [12]): 0.39 µg/mL (≈ 0.663 µM)
- MIC [8]: 0.78 µg/mL (≈ 1.33 µM)
- MIC [9]: 0.78 µg/mL (≈ 1.33 µM)

SMILES: NCC[C@H](O)C(=O)N[C@@H]1C[C@H](N)[C@@H](O[C@H]2O[C@H](CN)[C@@H](O)[C@H](O)[C@H]2O)C(F)(F)[C@H]1O[C@H]1O[C@H](CO)[C@@H](O)[C@H](N)[C@H]1O [Compound 5FF-amikacin, 1-N-[(S)-4-amino-2-hydroxybutyryl]-5-deoxy-5,5-difluorokanamycin A]
- MIC (Escherichia coli JR225): 0.39 µg/mL (≈ 0.644 µM)
- MIC (Serratia marcescens): 6.25 µg/mL (≈ 10.3 µM)
- MIC [1]: > 100 µg/mL
- MIC (Escherichia coli K-12; [13]): 1.56 µg/mL (≈ 2.58 µM)
- MIC (Bacillus subtilis PCI219): 1.56 µg/mL (≈ 2.58 µM)
- MIC [2]: 3.12 µg/mL (≈ 5.15 µM)
- MIC [3, 10]: 3.12 µg/mL (≈ 5.15 µM)
- MIC (Escherichia coli K-12 R5; [11]): 25 µg/mL (≈ 41.3 µM)
- MIC (Mycobacterium 607): 3.12 µg/mL (≈ 5.15 µM)
- MIC [4]: 3.12 µg/mL (≈ 5.15 µM)
- MIC [5, 14]: 3.12 µg/mL (≈ 5.15 µM)
- MIC [6]: 3.12 µg/mL (≈ 5.15 µM)
- MIC [7]: > 100 µg/mL
- MIC (Providencia sp. Pv 16): 3.12 µg/mL (≈ 5.15 µM)
- LD50 (in vivo): > 300 mg/kg
- MIC (Proteus rettgeri GN 311; [12]): 1.56 µg/mL (≈ 2.58 µM)
- MIC [8]: 3.12 µg/mL (≈ 5.15 µM)
- MIC [9]: 6.25 µg/mL (≈ 10.3 µM)

SMILES: CN[C@@H]1[C@@H](O)[C@@H](O[C@@H]2[C@@H](O)[C@H](O[C@H]3O[C@H]([C@@H](C)NC)CC[C@H]3N)[C@@H](N)C[C@H]2N)OC[C@]1(C)O [Genta-C1, gentamicin C1, reference compound]
- MIC (Escherichia coli JR225): 25 µg/mL (≈ 52.3 µM)
- MIC (Serratia marcescens): 0.78 µg/mL (≈ 1.63 µM)
- MIC [1]: 6.25 µg/mL (≈ 13.1 µM)
- MIC (Escherichia coli K-12; [13]): 0.2 µg/mL (≈ 0.419 µM)
- MIC (Bacillus subtilis PCI219): < 0.2 µg/mL
- MIC [2]: 0.39 µg/mL (≈ 0.817 µM)
- MIC [3, 10]: 12.5 µg/mL (≈ 26.2 µM)
- MIC (Escherichia coli K-12 R5; Escherichia coli): 0.78 µg/mL (≈ 1.63 µM)
- MIC (Mycobacterium 607): 3.12 µg/mL (≈ 6.53 µM)
- MIC [4]: < 0.2 µg/mL
- MIC [5, 14]: 0.39 µg/mL (≈ 0.817 µM)
- MIC [6]: 12.5 µg/mL (≈ 26.2 µM)
- MIC [7]: 0.78 µg/mL (≈ 1.63 µM)
- MIC (Providencia sp. Pv 16): 25 µg/mL (≈ 52.3 µM)
- LD50 (in vivo): ~70 mg/kg
- MIC (Proteus rettgeri GN 311): 0.78 µg/mL (≈ 1.63 µM)
- MIC [8]: 0.78 µg/mL (≈ 1.63 µM)
- MIC [9]: 12.5 µg/mL (≈ 26.2 µM)

SMILES: NC[C@H]1O[C@H](O[C@H]2[C@H](O)[C@@H](O[C@H]3O[C@H](CO)[C@@H](O)[C@H](N)[C@H]3O)[C@H](N)C[C@@H]2N)[C@H](O)[C@@H](O)[C@@H]1O [KMA, kanamycin A, reference compound]
- MIC (Escherichia coli JR225): 3.12 µg/mL (≈ 6.44 µM)
- MIC (Serratia marcescens): 12.5 µg/mL (≈ 25.8 µM)
- MIC [1]: > 100 µg/mL
- MIC (Escherichia coli K-12; Escherichia coli): 0.78 µg/mL (≈ 1.61 µM)
- MIC (Bacillus subtilis PCI219): 0.78 µg/mL (≈ 1.61 µM)
- MIC [2]: 12.5 µg/mL (≈ 25.8 µM)
- MIC [3, 10]: 50 µg/mL (≈ 103 µM)
- MIC (Escherichia coli K-12 R5; [11]): > 100 µg/mL
- MIC (Mycobacterium 607): 6.25 µg/mL (≈ 12.9 µM)
- MIC [4]: 1.56 µg/mL (≈ 3.22 µM)
- MIC [5, 14]: > 100 µg/mL
- MIC [6]: > 100 µg/mL
- MIC [7]: 25 µg/mL (≈ 51.6 µM)
- MIC (Providencia sp. Pv 16): 3.12 µg/mL (≈ 6.44 µM)
- MIC (Proteus rettgeri GN 311; [12]): 0.78 µg/mL (≈ 1.61 µM)
- MIC [8]: 6.25 µg/mL (≈ 12.9 µM)
- MIC [9]: > 100 µg/mL
